Columns and labels:
hTau transgenic mice = test: Multiple-doses subcutaneous administration in hTau transgenic mice, behavior and dendritic morphology; format: in vivo, mouse; conditions: 12 m-old hTau transgenic mice, subcutaneous 3 mg/kg once every 6 days, 5 times
Procedure: The Open field (OF) test was consisted of a 5 min session in a quadrate chamber (white opaque plastic). The chamber was divided into 16 square regions, a central field (center 4 square regions) and a periphery field. Each mouse was placed in the same position at the start of the test. Behaviors were recorded and analyzed by the video tracking system (Chengdu Taimeng Software Co., Ltd, China).
For novel object recognition (NOR) test, the mice were habituated to a quadrate chamber (white opaque plastic) for 5 min without objects 24 h prior to the test. The chamber was cleaned with 75% ethanol between each habituation period. The day after the mice re-entered the chamber from the same starting point and were given 10 min to familiarize themselves with the object A and object B. After each period the chamber and objects were cleaned with 75% ethanol. The next day after the familiarization period, object B was replaced with noval object C, and the mice were given 10 min to explore both objects. The exploring time in object A (TA) and C (TC) was recorded using the video tracking system. The discrimination index was calculated by (TC-TA)/(TA+TC).
The Elevated plus maze (EPM) test was performed as follows: mice were placed at the junction of the four arms of the maze (white opaque plastic), and started the test from facing an open arm. The chambers were cleaned with 75% ethanol before the next mouse was trained. The entries and duration time in each arm were recorded for 5 min by the video tracking system (Chengdu Taimeng Software Co., Ltd, China). An increase in open arm activity (duration and/or entries) reflects anti-anxiety behavior.
The Morris water maze (MWM) test was conducted to assess the spatial learning and memory. The maze was filled with water and divided into 4 quadrants with a platform placed in one quadrant. The mice were trained to find the hidden platform for 6 consecutive days, and underwent […] training trials (once per quadrant) per day from 14:00 to 20:00 pm. In each training trial, the mouse started from one of four quadrants facing the wall of the pool and the trial ended when the animal climbed on the platform. […] The spatial memory was tested 1 d after the last training by removed the platform. The longer a mouse stayed in the previous platform-located quadrant, the better it scored the spatial memory. A video camera, fixed to the ceiling 1.5 m from the water surface, was used to record the swimming path and the time for mice to find the platform (latency) or to pass through the previous platform-located quadrant each day. The camera was connected to a digital-tracking device attached to an IBM computer (Armonk, NY).
For fear conditioning (FC) test, the mice were placed into a square chamber with a grid floor. On the first day (day 1), each mouse was habituated to the chamber for 3 min, and then a foot shock (0.9 mA, 3 s) was delivered. Three sequential foot shocks at 3 min intervals were applied. Then the mice were returned to their home cages. On the next day (day 2), the mice were exposed to the same chamber without any stimulus for 3 min. The contextual conditioning was assessed by recording freezing behavior during the 3 min exposure. Freezing time during the 3 min was recorded for assessment of memory.
Golgi staining was performed by using a Rapid GolgiStain Kit (FD neurotechnologies, PK401) according to the manufacturer's instructions. Briefly, the animals were sacrificed and perfused for 5 min with PBS. All procedures were performed under dark condition. Brains were dissected out and immersed in impregnation solution (equal volumes of Solutions A and B, containing mercuric chloride, potassium dichromate, and potassium chromate, mixed for 24 h in advance), and stored at room temperature. Impregnation solution was replaced after 24 h. After 4 weeks, brains were transferred to Solution C and stored at 4 °C for 72 h, with the solution replaced after 24 h. […]

mRNA level of tau = test: Tau mRNA level by q-PCR in HEK293-hTau cells; format: cell-based, human; conditions: 20 μM for 24 h
Procedure: Total RNA was isolated by using Trizol™ kit (Invitrogen, Carlsbad, CA, USA) and the reverse transcription reagent kit (RR037, Takara) was used to obtain cDNA. RT-PCR was performed using a StepOnePlus Real-Time PCR Detection System (AB Applied Biosystems, 272001262, Cossell Biotechnology). The PCR system contains 2 μL forward and reverse primers, 10 μL SYBR Green PCR master mixes, 1 μL cDNA and 7 μL diethylpyrocarbonate (DEPC H2O). The primer of MAPT-forward was CAGCTCCGGCACCAACAG and the MAPT-reverse was […]. The primer of β-actin-forward was […] and β-actin-reverse was […].

tau = tau (Mus musculus, UniProt P10637); test: Single-dose subcutaneous administration in wild-type mice, brain tau by Western blotting; format: in vivo
Chain of tau (P10637 114-430 isoform P10637-2 limits assumed): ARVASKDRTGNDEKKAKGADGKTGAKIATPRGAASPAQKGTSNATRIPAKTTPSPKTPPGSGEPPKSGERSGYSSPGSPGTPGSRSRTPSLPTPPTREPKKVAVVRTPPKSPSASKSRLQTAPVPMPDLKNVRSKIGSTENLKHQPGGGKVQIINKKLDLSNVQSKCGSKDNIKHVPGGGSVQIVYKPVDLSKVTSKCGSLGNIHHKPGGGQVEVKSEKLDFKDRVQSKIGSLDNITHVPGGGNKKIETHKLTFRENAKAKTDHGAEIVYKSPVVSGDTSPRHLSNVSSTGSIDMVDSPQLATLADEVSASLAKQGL
Procedure: For brain surgery and stereotaxic cerebroventricular drug delivery, the mice were placed in a stereotaxic apparatus and anesthetized with 2% isoflurane (RWD Life Science, R510-22) through a nose cone (300-500 mL/min, RWD Life Science, China, R500). The scalp was incised along the midline between the ears after the mice were sterilized with iodophors and 75% (vol/vol) alcohol. The holes were drilled stereotaxically in the skull at a cerebroventricular location (posterior 0.22 mm, lateral 0.9 mm, and ventral 2.3 mm relative to bregma). Using a microinjection system (Shenzhen RWD Life Technology Co., Ltd; RWD 69100), C004019 (5 μL, 200 μM) was infused at a rate of 0.5 μL/min. The needle was kept in place for 10 min before withdrawal. After the skin was sutured, the mice were placed on a heater for analepsia. For subcutaneous injection, C004019 was diluted with 20% HP-β-CD and injected under the skin on the back neck to reach a final concentration of 3 mg/kg (low dose) or 15 mg/kg (high dose).
The cells or hippocampal/cortex tissues were homogenized for ~ 30 min on ice in buffer [50 mM Tris·HCl pH 7.4-7.5, 100 mM NaCl, 1% (vol/vol) Triton X-100, 5 mM EDTA, 1:100 PMSF, 1:1,000 protease inhibitor cocktail containing 4-(2-Aminoethyl)-benzenesulfonyl fluoride hydrochloride, aprotinin, bestatin, leupeptin, E-64, and pepstatin A stored at 4 °C], and then centrifuged at 12,000 × g at 4 °C for 20 min. The supernatant was collected and the protein levels were analyzed using bicinchoninic acid (BCA, KF016, Sigma-Aldrich) by following the manufacturer's instruction (served as soluble protein). The pellet was further incubated with 8% (wt/vol) SDS buffer at 4 °C and then treated by ultrasonic wave to reach a complete resuspension. The suspension was spun (18,000 × g, 4 °C for 20 min) and the supernatant collected (served as insoluble fraction). The supernatant of different faction was respectively mixed with loading buffer (3:1, vol/vol) containing 200 mM Tris-HCl, pH 6.8, 8% SDS, 40% glycerol, and boiled for 10 min. For Western blotting, the proteins were separated by 10% SDS-polyacrylamide gel via electrophoresis for about 2 h and transferred to nitrocellulose membranes ([…]) for 1 h. The membranes were blocked with 5% (wt/vol) BSA dissolved in PBS for 1 h and incubated with primary antibodies overnight at 4 °C in cold room. Membranes were then incubated with a secondary antibody for 1 h at room temperature and visualized using the ECL Imaging System (610007-8Q, Clinx Science Instruments Co., Ltd). Immunoreactive bands were quantitatively analyzed by Image J2x software.

Compound: CC(=O)N1CCCN(c2nc(NCCc3cccs3)nc(N(C)CC(=O)NCCOCCOCCOCC(=O)N[C@H](C(=O)N3C[C@H](O)C[C@H]3C(=O)NCc3ccc(-c4scnc4C)cc3)C(C)(C)C)n2)CC1 [C004019]
- duration time in the open arm, elevated plus maze (EPM) (hTau transgenic mice): no significant changes were detected
- fear condition (FC) test, freezing index (hTau transgenic mice): improved freezing index
- free movement in open field (OF) test (hTau transgenic mice): no significant changes were detected
- novel object recognition (NOR) test (hTau transgenic mice): increased time exploring new object
- neurite arborization and spine density in hippocampal DG (hTau transgenic mice; Golgi-cox staining and Sholl analysis): significantly increased
- Morris water maze (MWM) test, latency (hTau transgenic mice; learning trial and probe trial): decreased latency to find the platform
- mRNA level of tau (mRNA level of tau): did not significantly change the mRNA level of tau
- duration of tau reduction in the brain (tau; 4 m-old wild-type mice, single-dose subcutaneous 3 mg/kg): sustained tau reduction till 8 days
- tau level in hippocampus and cortex (tau; 4 m-old wild-type mice, subcutaneous 3 mg/kg, 24 h, compared with 15 mg/kg): much more significant tau reduction than that of high dose
- tau level in hippocampus and cortex (tau; 4 m-old wild-type mice, subcutaneous 15 mg/kg, 24 h and 48 h): Significant tau reduction
- tau reduction (tau; wild-type mice, 8 days after one treatment): 50%

From PMC8039949, “A novel small-molecule PROTAC selectively promotes tau clearance to improve cognitive functions in Alzheimer-like models” (Theranostics, 2021)
